Common to all, as to format: biochemical
The target in experiment [1] is VIM-2 (Veronese metallo-β-lactamase-2) (Escherichia coli, UniProt Q5U7L7). As to the kind of experiment: Enzyme inhibition assay, VIM-2. The conditions noted are these: for IC50: read-out: pIC50 VIM-2 (converted). How it is done:
(§1) The biological activity of the compounds of the present invention was tested using standard assay protocols.^7 The following representative enzymes NDM-1 (New Delhi metallo-β-lactamase-1), IMP-1 (Imipenemase-1) and VIM-2 (Veronese metallo-β-lactamase-2) were selected from different clinically relevant B1 metallo-β-lactamases.

In a further experiment the target is IMP-1 (Imipenemase-1) (Serratia marcescens, UniProt P52699). As to the kind of experiment: Enzyme inhibition assay, IMP-1. The conditions noted are these: for IC50: read-out: pIC50 IMP-1 (converted). The method, then: as §1
Experiment [2] deals with NDM-1 (New Delhi metallo-β-lactamase-1) (Klebsiella pneumoniae, UniProt C7C422). As to the kind of experiment: Enzyme inhibition assay, NDM-1. The conditions noted are these: read-out: pIC50 NDM-1 (converted). The method, then:
as §1

The values that follow come from patent US11439622B2 (OXFORD UNIVERSITY INNOVATION LIMITED, priority 2015, dated 2022).

IMP-1 (Imipenemase-1), sequence (P52699 19-246, looked up, species assumed): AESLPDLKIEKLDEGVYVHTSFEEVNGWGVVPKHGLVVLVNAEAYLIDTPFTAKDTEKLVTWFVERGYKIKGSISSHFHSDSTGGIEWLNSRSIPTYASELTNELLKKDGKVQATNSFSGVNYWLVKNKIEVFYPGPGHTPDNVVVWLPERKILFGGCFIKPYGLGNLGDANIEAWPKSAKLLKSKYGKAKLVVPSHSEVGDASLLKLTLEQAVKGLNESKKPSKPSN
NDM-1 (New Delhi metallo-β-lactamase-1), sequence (C7C422 29-270, looked up, species assumed): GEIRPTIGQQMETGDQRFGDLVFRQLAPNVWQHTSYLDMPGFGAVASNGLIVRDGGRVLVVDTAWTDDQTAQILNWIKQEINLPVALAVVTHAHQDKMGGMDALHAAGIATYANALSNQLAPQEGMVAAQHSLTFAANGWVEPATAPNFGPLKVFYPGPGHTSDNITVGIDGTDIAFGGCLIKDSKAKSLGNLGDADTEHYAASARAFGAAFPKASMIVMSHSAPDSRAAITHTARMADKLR

`CC(C)c1cccc2c(-c3ccc(Cn4cncn4)cc3)c(C(=O)O)[nH]c12` [Example 80, 3-(4-((1H-1,2,4-triazol-1-yl)methyl)phenyl)-7-isopropyl-1H-indole-2-carboxylic acid]: the IC50 was 10 nM in experiment [1], 20 nM at IMP-1 (Imipenemase-1) and 0.631 nM in experiment [2].

With `CC(C)c1cccc2c(-c3ccc(C(=O)N(C)C)cc3)c(C(=O)O)[nH]c12` [Example 74, 3-(4-(dimethylcarbamoyl)phenyl)-7-isopropyl-1H-indole-2-carboxylic acid], the IC50 was 79.4 nM in experiment [1], 20 nM at IMP-1 (Imipenemase-1) and 0.562 nM in experiment [2].

As for `Cc1cccc2c(-c3cnn(C)c3)c(C(=O)O)[nH]c12` [Example 26, 7-methyl-3-(1-methyl-1H-pyrazol-4-yl)-1H-indole-2-carboxylic acid], the IC50 in experiment [1] is 2510 nM; on IMP-1 (Imipenemase-1), 39800 nM; in experiment [2] it was 100 nM.

With `Cc1cccc2c(-c3ccc(C#N)cc3)c(C(=O)O)[nH]c12` [Example 7, 3-(4-cyanophenyl)-7-methyl-1H-indole-2-carboxylic acid], the values for the IC50 (in experiment [1]; on IMP-1 (Imipenemase-1); in experiment [2]) were 200 nM, 7940 nM and 39.8 nM, respectively.

As to `Cc1cccc2c(-c3ccccc3)c(C(=O)O)[nH]c12` [Example 37, 7-methyl-3-phenyl-1H-indole-2-carboxylate], the IC50 was 398 nM in experiment [1], 10000 nM on IMP-1 (Imipenemase-1) and 31.6 nM in experiment [2].

Consider `CC(C)c1cccc2c(-c3ccc(S(=O)(=O)N(C)C)cc3)c(-c3nnn[nH]3)[nH]c12` [Example 102, 4-[7-isopropyl-2-(1H-tetrazol-5-yl)-1H-indol-3-yl]-N,N-dimethyl-benzenesulfonamide], for which the results for the IC50 (in experiment [1]; on IMP-1 (Imipenemase-1); in experiment [2]) were 407 nM, 13200 nM and 10 nM, respectively.

Take `Cc1c(Oc2ccccc2)ccc2c(-c3ccc(C(=O)N(C)C)cc3)c(C(=O)O)[nH]c12` [Example 86, 3-(4-(dimethylcarbamoyl)phenyl)-7-methyl-6-phenoxy-1H-indole-2-carboxylic acid]: the IC50 is 575 nM in experiment [1], 646 nM at IMP-1 (Imipenemase-1) and 7.41 nM in experiment [2].

As for `Cc1cccc2c(-c3ccncc3)c(C(=O)O)[nH]c12` [Example 4, 7-methyl-3-(pyridin-4-yl)-1H-indole-2-carboxylic acid], the IC50 in experiment [1] was 631 nM; at IMP-1 (Imipenemase-1), 12600 nM; in experiment [2], 63.1 nM.

`Cc1cccc2c(-c3ccc(Cl)c(C(F)(F)F)c3)c(C(=O)O)[nH]c12` [Example 43, 3-(4-chloro-3-(trifluoromethyl)phenyl)-7-methyl-1H-indole-2-carboxylic acid]: the IC50 was 158 nM in experiment [1], 12600 nM at IMP-1 (Imipenemase-1) and 31.6 nM in experiment [2].

For `Cc1cccc2c(-c3ccc4cn[nH]c4c3)c(C(=O)O)[nH]c12` [Example 32, 3-(1H-indazol-6-yl)-7-methyl-1H-indole-2-carboxylic acid], the IC50 in experiment [1] was 79.4 nM; on IMP-1 (Imipenemase-1), 12600 nM; in experiment [2], 25.1 nM.

On to `Cc1c(Oc2ccccc2)ccc2c(-c3ccc(S(=O)(=O)N(C)C)cc3)c(C(=O)O)[nH]c12` [Example 82, 3-(4-(N,N-dimethylsulfamoyl)phenyl)-7-methyl-6-phenoxy-1H-indole-2-carboxylic acid], for which the IC50 is 158 nM in experiment [1], 501 nM at IMP-1 (Imipenemase-1) and 3.98 nM in experiment [2].

On to `Cc1ccc2c(-c3ccc(S(N)(=O)=O)cc3)c(C(=O)O)[nH]c2c1` [Example 47, 6-methyl-3-(4-sulfamoylphenyl)-1H-indole-2-carboxylic acid], for which the IC50 in experiment [1] is 7940 nM; on IMP-1 (Imipenemase-1) it was 50100 nM; in experiment [2], 398 nM.

As to `CN(C)C(=O)c1ccc(-c2c(C(=O)O)[nH]c3c(CCOc4ccccc4)cccc23)cc1` [Example 83, 3-(4-(dimethylcarbamoyl)phenyl)-7-(2-phenoxyethyl)-1H-indole-2-carboxylic acid], the IC50 in experiment [1] was 100 nM; at IMP-1 (Imipenemase-1), 63.1 nM; in experiment [2] it was 3.98 nM.

For the molecule `Cc1cccc2c(-c3ccc(S(=O)(=O)N(C)C)cc3)c(C(=O)O)[nH]c12` [Example 29, 3-(4-(N,N-dimethylsulfamoyl)phenyl)-7-methyl-1H-indole-2-carboxylic acid], the IC50 is 251 nM in experiment [1], 794 nM on IMP-1 (Imipenemase-1) and 5.01 nM in experiment [2].

Regarding `Cc1cccc2c(-c3ccc(C(F)(F)F)cc3)c(C(=O)O)[nH]c12` [Example 11, 7-methyl-3-(4-(trifluoromethyl)phenyl)-1H-indole-2-carboxylic acid], the IC50 in experiment [1] was 316 nM; on IMP-1 (Imipenemase-1) it was 12600 nM; in experiment [2] it was 31.6 nM.

Turning to `Cc1cccc2c(C3CCCC3)c(C(=O)O)[nH]c12` [Example 104, 3-cyclopentyl-7-methyl-1H-indole-2-carboxylic acid], the figures for the IC50 (in experiment [1]; on IMP-1 (Imipenemase-1); in experiment [2]) were 12600 nM, 50100 nM and 251 nM, respectively.

For the molecule `CC(C)c1cccc2c(-c3ccc(S(=O)(=O)N(C)C)cc3)c(C(=O)Nc3ccccc3)[nH]c12` [Example 127, 3-(4-(N,N-dimethylsulfamoyl)phenyl)-7-isopropyl-N-phenyl-1H-indole-2-carboxamide], the “pIC50 VIM-2” value in experiment [1] is on record as “N.I”. The “pIC50 IMP-1” value against IMP-1 (Imipenemase-1) is reported as “N.I”. Further, the IC50 in experiment [2] is 398 nM.

As for `Cc1cccc2c(-c3ccc(Cn4cncn4)cc3)c(C(=O)O)[nH]c12` [Example 33, 3-(4-((1H-1,2,4-triazol-1-yl)methyl)phenyl)-7-methyl-1H-indole-2-carboxylic acid], the IC50 in experiment [1] is 251 nM; at IMP-1 (Imipenemase-1) it was 2000 nM; in experiment [2], 5.01 nM.

Take `CC(C)c1cccc2c(-c3ccccc3Cl)c(C(=O)O)[nH]c12` [Example 72, 3-(2-chlorophenyl)-7-isopropyl-1H-indole-2-carboxylic acid]: the IC50 in experiment [1] was 12.6 nM; on IMP-1 (Imipenemase-1), 2510 nM; in experiment [2], 50.1 nM.

On to `COc1cccc2c(-c3ccc(F)cc3)c(C(=O)O)[nH]c12` [Example 50, 3-(4-fluorophenyl)-7-methoxy-1H-indole-2-carboxylic acid], for which the IC50 in experiment [1] is 1000 nM; on IMP-1 (Imipenemase-1), 25100 nM; in experiment [2] it was 251 nM.

`CC(C)c1cccc2c(-c3ccc(C(N)=O)cc3)c(C(=O)O)[nH]c12` [Example 69, 3-(4-carbamoylphenyl)-7-isopropyl-1H-indole-2-carboxylic acid]: the IC50 in experiment [1] is 7.94 nM; at IMP-1 (Imipenemase-1), 12.6 nM; in experiment [2] it was 2.51 nM.

In the case of `CC(C)c1cccc2c(-c3ccc(C(=O)O)cc3)c(C(=O)O)[nH]c12` [Example 91, 3-(4-carboxyphenyl)-7-isopropyl-1H-indole-2-carboxylic acid], the IC50 in experiment [1] is 7.24 nM; on IMP-1 (Imipenemase-1), 44.7 nM; in experiment [2] it was 3.39 nM.

Turning to `Cc1cccc2c(-c3ccc(-c4ccccc4)cc3)c(C(=O)O)[nH]c12` [Example 40, 3-([1,1′-biphenyl]-4-yl)-7-methyl-1H-indole-2-carboxylic acid], the values for the IC50 (in experiment [1]; on IMP-1 (Imipenemase-1); in experiment [2]) were 251 nM, 1580 nM and 15.8 nM, respectively.

For the molecule `COc1cc(C)c2[nH]c(C(=O)O)c(-c3ccc(F)cc3)c2c1` [Example 60, 3-(4-fluorophenyl)-5-methoxy-7-methyl-1H-indole-2-carboxylic acid], the IC50 is 631 nM in experiment [1], above 100000 nM at IMP-1 (Imipenemase-1) and 126 nM in experiment [2].

Turning to `Cc1cccc2c(-c3ccc(C4CC4)cc3)c(C(=O)O)[nH]c12` [Example 45, 3-(4-cyclopropylphenyl)-7-methyl-1H-indole-2-carboxylic acid], the IC50 in experiment [1] is 316 nM; on IMP-1 (Imipenemase-1), 3980 nM; in experiment [2], 31.6 nM.

On to `Cc1cccc2c(-c3cccc(Br)c3)c(C(=O)O)[nH]c12` [Example 18, 3-(3-bromophenyl)-7-methyl-1H-indole-2-carboxylic acid], for which the figures for the IC50 (in experiment [1]; at IMP-1 (Imipenemase-1); in experiment [2]) were 50.1 nM, 2000 nM and 20 nM, respectively.

On to `Cc1cccc2c(-c3ccc(Cn4cccn4)cc3)c(C(=O)O)[nH]c12` [Example 34, 3-(4-((1H-pyrazol-1-yl)methyl)phenyl)-7-methyl-1H-indole-2-carboxylicacid], for which the IC50 in experiment [1] was 200 nM; on IMP-1 (Imipenemase-1), 50.1 nM; in experiment [2], 10000 nM.

With `Cc1cccc2c(-c3ccc(Cl)cc3)c(C(=O)O)[nH]c12` [Example 42, 3-(4-chlorophenyl)-7-methyl-1H-indole-2-carboxylic acid], the values for the IC50 (in experiment [1]; on IMP-1 (Imipenemase-1); in experiment [2]) were 251 nM, 10000 nM and 15.8 nM, respectively.

For `O=C(O)c1[nH]c2c(C3CC3)cccc2c1-c1ccc(F)cc1` [Example 106, 7-cyclopropyl-3-(4-fluorophenyl)-1H-indole-2-carboxylic acid], the results for the IC50 (in experiment [1]; on IMP-1 (Imipenemase-1); in experiment [2]) were 50.1 nM, 501 nM and 12.6 nM, respectively.

In the case of `Cc1ccccc1-c1c(C(=O)O)[nH]c2c(C)cccc12` [Example 41, 7-methyl-3-(o-tolyl)-1H-indole-2-carboxylic acid], the IC50 was 251 nM in experiment [1], 1580 nM on IMP-1 (Imipenemase-1) and 316 nM in experiment [2].

Take `COc1ccc2c(-c3ccc(F)cc3)c(C(=O)O)[nH]c2c1C` [Example 55, 3-(4-fluorophenyl)-6-methoxy-7-methyl-1H-indole-2-carboxylic acid]: the IC50 in experiment [1] was 398 nM; on IMP-1 (Imipenemase-1) it was 2000 nM; in experiment [2], 25.1 nM.

Regarding `Cc1cccc2c(-c3cccc([N+](=O)[O-])c3)c(C(=O)O)[nH]c12` [Example 15, 7-methyl-3-(3-nitrophenyl)-1H-indole-2-carboxylic acid], the values for the IC50 (in experiment [1]; at IMP-1 (Imipenemase-1); in experiment [2]) were 126 nM, 15800 nM and 25.1 nM, respectively.
